Data set [1] relates to P. falciparum strain FcM29 (highly resistant to chloroquine). Description: antimalarial activity assay, radioactive micromethod of Desjardins (tritiated hypoxanthine incorporation), strain FcM29. It counts as cell-based. Conditions: Plasmodium falciparum, Erythrocyte, read-out: IC50 (concentration of the compound required to inhibit the parasite growth by 50%). The procedure:
Two strains of P. falciparum are used, the origin of which is Colombia (FcB1, strain moderately resistant to chloroquine) and Cameroon (FcM29, strain highly resistant to chloroquine). These strains of P. falciparum are cultured continuously in human red blood cells according to the method of Trager and Jensen (W. Trager, J. Jensen, Science, 1976, 193, 673-675): the parasites are maintained in human red blood cells (O±), diluted to 2% parasiteamia in an RPMI 1640 medium supplemented with 25 mM of Hepes, 24 mM of NaHCO3 and 2 mM of L-glutamine, and supplemented with 5% of human serum of all groups. The parasites are incubated at 37° C. in a humid atmosphere and at 5% CO2.
The antimalarial activity assays are carried out according to the radioactive micromethod of Desjardins (R. E. Desjardins, C. J. Canfield, J. D. Haynes, J. D. Chulay, Antimicrob. Agents Chemother., 1979, 16, 710-718). Each molecule is tested in triplicate. The assays are carried out in 96-well microplates. The strains of P. falciparum are cultured in solutions of RPMI 1640 supplemented with 5% of human serum with a 2% haematocrit and a 1.5% parasitaemia. For each assay, the parasites are incubated with decreasing concentrations of compounds of formula (I) for 48 h at 37° C. in a humid atmosphere and at 5% CO2.
The first dilution of the test compound is prepared at 1 mg/ml in dimethyl sulphoxide. The dilution range for the successive daughter solutions is also prepared in dimethyl sulphoxide. Each daughter dilution is subsequently diluted to 1/50 in RPMI 1640 supplemented with 5% of human serum, all the dilutions being prepared at 37° C. These dilutions are then added to the parasites in culture in the microplates. After addition of the test compound, the parasites are in culture in RPMI 1640 containing 5% of human serum and 1% of dimethyl sulphoxide. The parasite growth is measured by the incorporation of tritiated hypoxanthine (added 24 h after the beginning of exposure to the test compound) compared with incorporation in the absence of the test compound (taken as 100%). The IC50 values (concentration of the compound required to inhibit the parasite growth by 50%) are determined by plotting the percentage inhibition as a function of the log of the dose by means of the GraphPad Prism 4® processing software (GraphPad software, Inc., 5755 Oberlin Drive, # 110, San Diego, Calif. 92121, USA).

Setting [2] is: strain FcM29, 48 h incubation in human red blood cells, tritiated hypoxanthine incorporation.

The text below walks through data of patent US7842711B2, “Indazolecarboxamide derivatives for the treatment and prevention of malaria” (Sanofi-Aventis, priority 2004, dated 2010).

Where a name gives a salt, the structure may show the parent alone. Read-outs that look alike come from different tables or passages of the source.

A word on the melting point: it is the temperature, or range, at which the solid turns liquid. In the case of `CCNCc1cccc(NC(=O)c2n[nH]c3ccc(-c4cncc5ccccc45)cc23)c1` (as salt: HCl) [Compound No. 14, N-{3-[(Ethylamino)methyl]phenyl}-5-isoquinolin-4-yl-1H-indazole-3-carboxamide dihydrochloride], the melting point is over 135 °C.

Turning to `O=C(Nc1ccncc1)c1n[nH]c2ccc(-c3cncc4ccccc34)cc12` [Compound No. 3, N-(Pyridin-4-yl)-5-isoquinolin-4-yl-1H-indazole-3-carboxamide], the melting point is over 250 °C. Besides, the IC50 in data set [1] (setting [2]) was 600 nM.

`O=C(Nc1ccncc1)c1n[nH]c2ccc(-c3cncc4[nH]ccc34)cc12` [Compound No. 10, N-(Pyridin-4-yl)-5-(1H-pyrrolo[2,3-c]pyridin-4-yl)-1H-indazole-3-carboxamide] came in with a melting point of over 250 °C. For the same compound, in data set [1] (setting [2]), the IC50 turned out to be 130 nM.

On to `O=C(Nc1ccncc1)c1n[nH]c2ccc(-c3cn[nH]c3)cc12` [Compound No. 11, 5-(1H-Pyrazol-4-yl)-N-(pyridin-4-yl)-1H-indazole-3-carboxamide], for which the melting point is over 250 °C. In data set [1] (setting [2]), the IC50 amounted to 800 nM.

As for `CCNCc1cccc(NC(=O)c2n[nH]c3ccc(-c4cncc5ccccc45)cc23)c1` [Compound No. 14, N-{3-[(Ethylamino)methyl]phenyl}-5-isoquinolin-4-yl-1H-indazole-3-carboxamide dihydrochloride], in data set [1] (48 h), the IC50 is 272 nM.

The compound `O=C(Nc1ccncc1)c1n[nH]c2ccc(-c3ccc(Cl)nc3)cc12` [compound 12, 5-(6-chloropyridin-3-yl)-N-pyridin-4-yl-1H-indazole-3-carboxamide] returned a melting point of over 250 °C. For the same compound, the IC50 in data set [1] (setting [2]) stood at 800 nM.

`CCNCc1cccc(NC(=O)c2n[nH]c3ccc(-c4cncc5[nH]ccc45)cc23)c1` [compound 21, N-{3-[(ethylamino)methyl]phenyl}-5-(1H-pyrrolo[2,3-c]pyridin-4-yl)-1H-indazole-3-carboxamide]: the melting point was over 250 °C. The IC50 in data set [1] (setting [2]) was 406 nM.
